Measured values from patent US9879303B2, “Chromogenic glucuronidase substrates and uses” (Glycosynth Limited, priority 2013, dated 2018).
Counter-ions that a name gives are not always drawn.

System: E. cloacae
Assay: screen of strains in broth medium containing FAC
Assay type: cell-based
Design: key: Red, Green, Black or Purple mean strong colour; Red, Green, Black or Purple mean strong colour; Red, Green, Black or Purple mean strong colour; Red, Green, Black or Purple mean strong colour; +/− means less colour than strong; Tr means a trace of colour, less than +/−; — means no colour
[1] = E. cloacae 260329R, 37° C. 18 hours
[2] = E. cloacae NCTC 11936, 37° C. 18 hours

| SMILES | colour [1] | colour [2] |
| --- | --- | --- |
| O=C(O)C1OC(Oc2ccccc2O)C(O)C(O)C1O [Compound 1, Catechol β-D-Glucuronide CHA Salt] | — | — |
| O=C(O)C1OC(Oc2cc3ccccc3cc2O)C(O)C(O)C1O [Compound 2b, DHN-β-D-Glucuronide CHA Salt] | — | — |
